Measured values as given in the METLIN SMRT retention time set (Domingo-Almenara et al. 2019).

Assay: gradient 5% acetonitrile 3 min, to 50% in 2 min, to 85% in 15 min, held 3 min, 100 µL/min
Conditions: column: Zorbax Extend-C18 2.1 x 50 mm; eluents: water / acetonitrile, 0.1% formic acid
Outline: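 Over 3 months, pure standards in mixtures of ~100 molecules were run by HPLC coupled to a quadrupole time-of-flight mass spectrometer in positive and negative ionization mode. The column was a Zorbax Extend-C18 (2.1 × 50 mm, 1.8 μm) at 100 μL/min, eluted with water and acetonitrile each holding 0.1% formic acid, with 40 μL dead and 900 μL dwell volumes. Retention time was determined from adduct peaks chosen by software and checked manually.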

Which RP-LC retention time does the source give for `CN1CCN2c3ncccc3Cc3ccccc3[C@@H]2C1` here?
The RP-LC retention time was 647 s.

With `CC(C)N1CCn2cc(S(=O)(=O)Nc3cccc(F)c3)cc2C1=O` as the compound, how does the RP-LC retention time read?
The RP-LC retention time was 751 s.

For `O=C(Nc1cnc(N2CCCCC2)nc1)c1ccccc1Br`, which RP-LC retention time is on record?
Its RP-LC retention time is 902 s.

For `CCn1c(=O)c2ccnn2c2ccc(C(=O)NC3CCCC3)cc21`, which RP-LC retention time is on record?
Its RP-LC retention time is 587 s.

With `O=S(=O)(c1ccc(F)cc1)N1CCc2nc(-c3ccc(F)cc3)ncc2C1` as the compound, how does the RP-LC retention time read?
The RP-LC retention time was 1070 s.

Which RP-LC retention time does the source give for `OC[C@@H]1CN(Cc2ccco2)C[C@H]1c1nc(-c2cccnc2)no1` here?
The RP-LC retention time was 557 s.

With `CSc1nnc(-c2nn(C)c3c2CN(C(=O)c2c(F)cccc2Cl)CC3)n1C` as the compound, how does the RP-LC retention time read?
The RP-LC retention time was 728 s.

With `CS(=O)(=O)c1ccc(Nc2nc(C(=O)NCC3CCCO3)cs2)cc1` (configuration not stated) as the compound, how does the RP-LC retention time read?
The RP-LC retention time was 636 s.

With `Cc1ccc(NC(=O)N2CCN(c3cc(-c4ccncc4)[nH]n3)CC2)c(C)c1` as the compound, how does the RP-LC retention time read?
Its RP-LC retention time is 615 s.

For `O=C(Nc1cc(F)cc(F)c1)NC1CCN(c2ccc(F)cc2)C1=O` (configuration not stated), which RP-LC retention time is on record?
The RP-LC retention time was 895 s.

For `Cc1ccc(-c2nc3cc(C)ccn3c2Nc2ccc3c(c2)OCCO3)cc1`, which RP-LC retention time is on record?
Its RP-LC retention time is 721 s.

For `CCN1C(=O)COc2ccc(-c3noc(CNC(=O)Cc4ccc(Cl)cc4)n3)cc21`, which RP-LC retention time is on record?
Its RP-LC retention time is 859 s.

Which RP-LC retention time does the source give for `O=C([C@@H]1C[C@H](Oc2ccccc2)CN1C(=O)c1ccoc1)N1CCCC1` here?
Its RP-LC retention time is 733 s.

For `CCc1noc(NC(C)=O)c1-c1ccc(C)c(S(=O)(=O)Nc2ccccc2)c1`, which RP-LC retention time is on record?
The RP-LC retention time was 719 s.

With `NC(=O)CSc1nnc(-c2ccncc2)o1` as the compound, how does the RP-LC retention time read?
The RP-LC retention time was 486 s.

With `Cn1c(=O)c2c(ncn2CC(=O)N2CCC(C)(c3noc(C4CC4)n3)CC2)n(C)c1=O` as the compound, how does the RP-LC retention time read?
Its RP-LC retention time is 672 s.

For `Cc1ccc(C)c(NC(=O)C2CCN(S(=O)(=O)c3cc(C(=O)N4CCCC4)n(C)c3)CC2)c1`, which RP-LC retention time is on record?
The RP-LC retention time was 747 s.

With `N#Cc1cccc(CN2CCC(c3nncn3-c3ccccc3)CC2)c1` as the compound, how does the RP-LC retention time read?
The RP-LC retention time was 584 s.

With `O=C(Nc1nc(-c2ccc([N+](=O)[O-])cc2)cs1)c1ccc(COc2c(F)c(F)cc(F)c2F)o1` as the compound, how does the RP-LC retention time read?
Its RP-LC retention time is 1190 s.

Which RP-LC retention time does the source give for `O=c1n(Cc2ccccc2)nc2c(-c3nc(-c4ccccc4)no3)cccn12` here?
The RP-LC retention time was 984 s.

For `CCn1c(=O)oc2cc(-c3noc(COc4ccccc4)n3)ccc21`, which RP-LC retention time is on record?
The RP-LC retention time was 1020 s.

For `CCOC(=O)C(CC)Sc1ccc(NC(=O)c2cccs2)nn1` (configuration not stated), which RP-LC retention time is on record?
Its RP-LC retention time is 908 s.

Which RP-LC retention time does the source give for `O=C(NC1CCCC1)C1CCN(S(=O)(=O)c2cc(C(=O)N3CCCCCC3)cs2)CC1` here?
The RP-LC retention time was 836 s.

With `CC(Oc1ccccc1)C(=O)N1CCc2c(c(C(=O)NCc3ccc4c(c3)OCO4)nn2C)C1` (configuration not stated) as the compound, how does the RP-LC retention time read?
Its RP-LC retention time is 818 s.

With `COc1cccc(NC(=O)N(C)CCc2noc(COc3ccc(F)cc3)n2)c1` as the compound, how does the RP-LC retention time read?
Its RP-LC retention time is 856 s.

Which RP-LC retention time does the source give for `Cc1cc(=O)n(CC(=O)Nc2ccc(F)c(F)c2)c(N2CCCCC2)n1` here?
Its RP-LC retention time is 700 s.

For `CCCCOc1ccc(CNC(=O)c2ccc3c(c2)N(C)C(=O)C2CCCCN32)cc1` (configuration not stated), which RP-LC retention time is on record?
The RP-LC retention time was 843 s.

For `COc1cc(C(C)=O)ccc1OC(=O)c1cc2c(C)nn(-c3ccccc3)c2s1`, which RP-LC retention time is on record?
The RP-LC retention time was 1190 s.

Which RP-LC retention time does the source give for `CC(C)c1ccc(NC(=O)Cn2cnc3c(sc4nc(-c5ccccc5)ccc43)c2=O)cc1` here?
The RP-LC retention time was 1180 s.

Which RP-LC retention time does the source give for `Cc1noc(CNC(=O)C2CCN(C(=O)CSc3ccc(F)cc3)CC2)n1` here?
The RP-LC retention time was 645 s.

Which RP-LC retention time does the source give for `COc1cc(NC(=O)NC(C)C(=O)N2CCc3ccccc32)cc(OC)c1` (configuration not stated) here?
Its RP-LC retention time is 817 s.

For `CN1CCN(C(CNC(=O)c2ccc(Cl)cc2)c2ccc(N(C)C)cc2)CC1` (configuration not stated), which RP-LC retention time is on record?
Its RP-LC retention time is 557 s.

For `COc1cc(C(=O)NC(CC(C)C)C(=O)Nc2nc3ccccc3[nH]2)cc(OC)c1OC` (configuration not stated), which RP-LC retention time is on record?
The RP-LC retention time was 733 s.

Which RP-LC retention time does the source give for `COc1ccccc1CNC(=O)C1(c2ccc(NS(C)(=O)=O)cc2)CCCCC1` here?
The RP-LC retention time was 893 s.

With `CN(C(=O)CN1C(=O)NC2(CCCCC2)C1=O)c1ccccc1` as the compound, how does the RP-LC retention time read?
Its RP-LC retention time is 740 s.

With `Cn1nc(C(=O)Nc2ccccc2F)cc1C(F)(F)F` as the compound, how does the RP-LC retention time read?
The RP-LC retention time was 951 s.

For `CN(C)C(=O)c1cc2c(s1)CCC(C(=O)N1CCOCC1)C2` (configuration not stated), which RP-LC retention time is on record?
Its RP-LC retention time is 781 s.
